# PMC7344389, “Discovery of Anti-Amoebic Inhibitors from Screening the MMV Pandemic Response Box on Balamuthia mandrillaris, Naegleria fowleri, and Acanthamoeba castellanii” (Pathogens, 2020)
# Like-named read-outs stand apart in the source and are kept apart here.
# What was measured:
# Assay type in all cases: cell-based
# [1] = system: Acanthamoeba castellanii trophozoites; assay: CellTiter-Glo 2.0 trophocidal assay, A. castellanii; conditions: for IC50: CTG method, 72 h, duplicate twofold serial dilutions from 10 µM, mean ± SD
# Procedure: This isolate was also purchased from ATCC. Trophozoites were routinely grown axenically at 27 °C in Protease Peptone-Glucose Media (PG) in non-vented 75 cm^2 tissue culture flasks (Olympus, El Cajon, CA, USA), until the cells were 80–90% confluent. For sub-culturing, cells were mechanically harvested to detach the cells from the culture flasks. The cells were collected by centrifugation at 4000 rpm at 4 °C.
# The trophocidal activity of compounds was assessed using the CellTiter-Glo 2.0 luminescent viability assay (Promega, Madison, WI, USA), as previously described. Trophozoites were routinely cultured as described above and only logarithmic trophozoites were used. […] Initially all compounds were assessed in a single-point drug screen at 10 and 1 μM, as previously described. […] We used this process to reduce the number of potential false positives. Drugs were cherry-picked, dissolved in the media specific to each parasite, and assessed in twofold serial dilutions from the highest concentration of 10 μM. All assays were incubated at each of the parasites’ representative growth temperatures, described above, for 72 h. At the 72 h time point, 25 μL of CellTiter-Glo 2.0 reagent was added to all wells of the 96-well plates using the Biomek NX^P automated workstation. The plates were protected from light and contents were mixed using an orbital shaker at 300 rpm at room temperature for 2 min to induce cell lysis. After shaking, the plates were equilibrated at room temperature for 10 min to stabilize the luminescent signal. The adenosine triphosphate (ATP) luminescent signal (relative light units; RLUs) was measured at 490 nm with a SpectraMax I3X plate reader (Molecular Devices, Sunnyvale, CA, USA). Drug inhibitory concentration (IC50) curves were generated using total ATP RLUs, where controls were calculated as the average of replicates using the Levenberg–Marquardt algorithm, using DMSO as the normalization control, as defined in Collaborative Drug Discovery Inc. (CDD) Vault (Burlingame, CA, USA). Values reported are from a minimum of two biological replicates with standard deviations.
# [2] = system: A549 human lung carcinoma cells; assay: MTS cytotoxicity counter-screen of reconfirmed hits
# Procedure: Cytotoxicity of the reconfirmed hits was determined by using the CellTiter 96® AQueous One Solution Cell Proliferation Assay (Promega, Madison, WI) on A549 human lung carcinoma cells. A549 cells were seeded at a concentration of 1.6 × 10^4 cells/mL in 96-well tissue culture plates (Corning, NY, USA), in the presence of serially diluted active hits against B. mandrillaris, N. fowleri, or A. castellanii. Positive control wells contained cells and media; negative control wells contained 0.1% DMSO. Cells were grown in F12K medium supplemented with 10% FBS and 1% gentamycin (all supplied from Fisher Scientific, Atlanta, GA, USA). The inhibitor concentration started at 10 µM and was diluted in doubling dilutions to assess cytotoxicity in comparison to the respective free-living amoeba. Total volume of each well was 100 µL and plates were incubated at 37 °C, 5% CO2 for 72 h. Next, 4 h before the time-point, 20 µL of MTS (Promega, Madison, WI, USA) was added to each well. Inhibition of A549 growth was assessed at the 72 h time-point measuring the optical density (OD) values at 490 nm using a SpectraMax I3X plate reader (Molecular Devices, Sunnyvale, CA, USA). Curve fitting using non-linear regression was carried out using the average of replicates and the Levenberg–Marquardt algorithm, using DMSO as the normalization control, as defined in CDD Vault (Burlingame, CA, USA).
# [3] = system: Naegleria fowleri trophozoites; assay: CellTiter-Glo 2.0 trophocidal assay, N. fowleri
# Procedure: Pathogenic Naegleria fowleri (ATCC 30215), a clinical isolate obtained from a child in Adelaide, Australia, that died of PAM in 1969 was previously purchased from the American Type Culture Collection (ATCC). Trophozoites were routinely grown axenically at 34 °C in Nelson’s complete medium (NCM) in non-vented 75 cm^2 tissue culture flasks (Olympus, El Cajon, CA, USA), until the cells were 80–90% confluent. For sub-culturing, cells were placed on ice to detach the cells from the culture flasks. The cells were collected by centrifugation at 4000 rpm at 4 °C. Complete NCM media is produced by the addition of 10% FBS and 125 μg of penicillin/streptomycin antibiotics.
# The trophocidal activity of compounds was assessed using the CellTiter-Glo 2.0 luminescent viability assay (Promega, Madison, WI, USA), as previously described. Trophozoites were routinely cultured as described above and only logarithmic trophozoites were used. In brief, B. mandrillaris, N. fowleri, or A. castellanii trophozoites cultured in their corresponding media were seeded at 16,000, 3000, or 1440 cells/well into white 96-well plates (Costar 3370), respectively. Initially all compounds were assessed in a single-point drug screen at 10 and 1 μM, as previously described. […] Control wells were supplemented with 0.1% (10 μM screening plate) or 0.01% (1 μM screening plate) DMSO, as the negative controls, or 12.5 μM of chlorhexidine, as the positive control. Following the single-point assays at 10 and 1 µM, we prioritized compounds for progression to IC50 determinations. […] We used this process to reduce the number of potential false positives. Drugs were cherry-picked, dissolved in the media specific to each parasite, and assessed in twofold serial dilutions from the highest concentration of 10 μM. All assays were incubated at each of the parasites’ representative growth temperatures, described above, for 72 h. At the 72 h time point, 25 μL of CellTiter-Glo 2.0 reagent was added to all wells of the 96-well plates using the Biomek NX^P automated workstation. The plates were protected from light and contents were mixed using an orbital shaker at 300 rpm at room temperature for 2 min to induce cell lysis. After shaking, the plates were equilibrated at room temperature for 10 min to stabilize the luminescent signal. The adenosine triphosphate (ATP) luminescent signal (relative light units; RLUs) was measured at 490 nm with a SpectraMax I3X plate reader (Molecular Devices, Sunnyvale, CA, USA). Drug inhibitory concentration (IC50) curves were generated using total ATP RLUs, where controls were calculated as the average of replicates using the Levenberg–Marquardt algorithm, using DMSO as the normalization control, as defined in Collaborative Drug Discovery Inc. (CDD) Vault (Burlingame, CA, USA). Values reported are from a minimum of two biological replicates with standard deviations.
# [4] = Homo sapiens, A549, MTS assay, 72 h, doubling dilutions from 10 µM, read-out: A549 Mean IC50
# [5] = Naegleria fowleri, 72 h, CTG method, 72 h, duplicate twofold serial dilutions from 10 µM, mean ± SD; read-out: N. fowleri Mean IC50 (µM) ± SD
# [6] = MTS assay, 72 h, doubling dilutions from 10 µM, read-out: A549 Mean IC50
# [7] = CTG method, 72 h, duplicate twofold serial dilutions from 10 µM, mean ± SD; read-out: N. fowleri Mean IC50 (µM) ± SD
SMILES,"IC50 [2, 4] [µM]",Selectivity Index (A549 IC50/N. fowleri IC50) ([3]; SI = (IC50 A549)/(IC50 Amoeba)),"IC50 [3, 5] [µM]","IC50 [2, 6] [µM]","IC50 [3, 7] [µM]",also measured
CCC(C)(C)c1ccc(CC(C)CN2C[C@@H](C)O[C@@H](C)C2)cc1 (stereo partly shown) [Amorolfine],> 10,–,–,–,–,IC50 [1]: 1.63 ± 1.62 µM; IC50 ([1]; listed as amorolfine): ≤ 10 µM; Selectivity Index (A549 IC50/A. castellanii IC50) ([1]; SI = (IC50 A549)/(IC50 Amoeba)): ≥6.13
Nc1nc(F)nc2c1ncn2[C@@H]1O[C@H](CO)[C@@H](O)[C@@H]1O [Fludarabine],–,<2.83,–,–,–,"IC50 ([3]; Naegleria fowleri; CTG method, 72 h, duplicate twofold serial dilutions from 10 µM, mean ± SD; read-out: N. fowleri Mean IC50 (µM) ± SD): 0.11 ± 0.03 µM; potency against N. fowleri, in words ([3]; dose-response, CTG): nanomolar potency; IC50 ([2]; Homo sapiens, A549, 72 h, read-out: A549 Mean IC50 (µM)): < 0.31 µM"
CC[C@H]1OC(=O)[C@H](C)[C@@H](O[C@H]2C[C@@](C)(OC)[C@@H](O)[C@H](C)O2)[C@H](C)[C@@H](O[C@@H]2O[C@H](C)C[C@H](N(C)C)[C@H]2O)[C@](C)(O)C[C@@H](C)C(=O)[C@H](C)[C@@H](O)[C@]1(C)O [Erythromycin],> 10,≥42.6,0.24 ± 0.02,–,–,"Selectivity Index (A549 IC50/N. fowleri IC50) ([3]; SI = (IC50 A549)/(IC50 Amoeba); listed as erythromycin): ≥ 10; potency against N. fowleri, in words ([3]; dose-response, CTG): nanomolar potency"
Nc1nc(N)c2c(Sc3ccccc3)cccc2n1 [MMV021759],–,–,–,> 10,–,–
C[C@H](c1cccc2ccccc12)N(C)Cc1ccccc1 [MMV1782221],–,–,–,> 10,–,–
C=CCN(C(=O)OCc1ccc([N+](=O)[O-])cc1)C1CCN(CC[C@](C)(CN(C)S(=O)(=O)c2ccccc2)c2ccccc2)CC1 [MMV1782214],–,–,–,> 10,7.9,–
O=c1cc(NCCCN[C@@H]2CCOc3c(Br)cc(Br)cc32)[nH]c2ccsc12 [MMV1578884],> 10,≥128,0.08 ± 0.02,–,–,"Selectivity Index (A549 IC50/N. fowleri IC50) ([3]; SI = (IC50 A549)/(IC50 Amoeba); listed as CRS-3123): ≥ 10; potency against N. fowleri, in words ([3]; dose-response, CTG): nanomolar potency"
CN(C)[C@@H]1C(O)=C(C(N)=O)C(=O)[C@@]2(O)C(O)=C3C(=O)c4c(O)c(NC(=O)CN5CCCC5)cc(F)c4C[C@H]3C[C@@H]12 [Eravacycline],> 10,≥3.64,2.75 ± 0.35,–,–,–
Nc1nc(Nc2ccc3nc(-c4ccc(F)cc4)cc(N)c3c2)cc(-c2ccccc2)n1 [MMV1593541],–,–,–,2.3,5.3 ± 0.6,–
N#C/C(=C1/SC[C@@H](c2ccc(Cl)cc2Cl)S1)n1ccnc1 [Luliconazole],> 10,≥556,0.02 ± 0.01,–,–,"Selectivity Index (A549 IC50/N. fowleri IC50) ([3]; SI = (IC50 A549)/(IC50 Amoeba); listed as luliconazole): ≥ 10; potency against N. fowleri, in words ([3]; dose-response, CTG): nanomolar potency"
CC[C@@]1(O)C(=O)OCc2c1cc1n(c2=O)Cc2cc3c([N+](=O)[O-])cccc3nc2-1 [Rubitecan],0.47,0.20,2.3 ± 0.2,–,–,–
OCCC#Cc1nc(-c2ccc(F)cc2)c(-c2ccncc2)n1CCCc1ccccc1 [RWJ-67657],> 10,≥1.87,5.35 ± 0.35,–,–,–
CCOC(=O)Nc1cc(NC(C)CC(C)CN(CC)CC)c2nc(-c3ccccc3)c(-c3ccccc3)nc2n1 (stereo not shown) [MMV1633967],–,–,–,> 10,8.2 ± 1,–
Cn1cncc1[C@@](N)(c1ccc(Cl)cc1)c1ccc2c(c1)c(-c1cccc(Cl)c1)cc(=O)n2C [Tipifarnib],8,6.50,–,–,–,"IC50 ([3]; Naegleria fowleri, 72 h, read-out: N. fowleri Mean IC50 (µM) ± SD): 1.23 ± 0.27 µM"
CCC(C)NCC(O)Cn1c2ccc(Cl)cc2c2cc(Cl)ccc21 (stereo not shown) [MMV1578570],–,–,–,> 10,6.4 ± 0.9,–
NC(=S)N/N=C/c1ncccc1N [Triapine],3.5,0.88,4 ± 0.1,–,–,–
CN1c2ccc(Cl)cc2N(c2ccccc2)C(=O)c2cn(Cc3ccc(CN4CCOCC4)cc3)nc21 [MMV1782222],–,–,–,> 10,5.4,–
Cc1cccc(C)c1C(=O)Nc1nc(-c2ccccn2)cc2ccccc12 [MMV1581558],–,–,–,> 10,–,–
COc1ccc2sc3c(c2c1)NC(C)CNC3=O (stereo not shown) [MMV1782115],–,–,–,5.8,9.35 ± 0.35,–
Oc1c(C(Nc2nc3ccccc3s2)c2ccc(OC(F)F)cc2)ccc2cccnc12 (stereo not shown) [MMV019724],–,–,–,6.2,6 ± 0.7,–
C=C[C@]1(C)C[C@@H](OC(=O)CS[C@@H]2C[C@H]3CC[C@@H](C2)N3C)[C@]2(C)[C@H](C)CC[C@]3(CCC(=O)[C@H]32)[C@@H](C)[C@@H]1O [Retapamulin],> 10,≥8.97,–,–,1.12 ± 0.28,"IC50 ([3]; CTG method, 72 h, duplicate twofold serial dilutions from 10 µM, mean ± SD; listed as repatamulin; read-out: N. fowleri Mean IC50 (µM) ± SD): ≤ 10 µM"
O=C(Nc1cccc(C2=NCCN2)c1)c1ccc(-c2ccc(C(=O)Nc3cccc(C4=NCCN4)c3)cc2)cc1 [MMV1580853],–,–,–,> 10,4.95 ± 2.55,–
Cc1cc(C2CCCCC2)n(O)c(=O)c1 [Ciclopirox],> 10,≥1.33,7.5 ± 1.4,–,–,–
NC[C@H]1OB(O)c2c(OCCCO)cccc21 [Epetraborole],> 10,≥3.85,2.6 ± 0.3,–,–,–
